Laboratory results published in US8969542B2, “HPV polyepitope constructs and uses thereof” (priority 2007, dated 2015).
Like-named read-outs stand apart in the source and are kept apart here. Where no end group is shown, it is not given here.

Key:
[1] = molecular target: DRB1*0101 (DR1) (Homo sapiens, UniProt P01903+P01911, A100R/D57E/F55L/F60I/F76Y/I96L/L162R/M171V/P40L/Q125E/R42F/V115G/Y59C); test: biochemical
[2] = molecular target: DRB1*0301 (DR3) (Homo sapiens, UniProt P01903+P01911, A100K/A102G/A103R/A169T/F55Y/I96L/K41T/L162R/M171V/P40S/Q125H/Q178H/Q39Y/R42S/S66N/T106N/T262R/W38E/Y61H); test: biochemical
Sequence of DRB1*0301 (DR3) (P01903 26-254, other chains not shown): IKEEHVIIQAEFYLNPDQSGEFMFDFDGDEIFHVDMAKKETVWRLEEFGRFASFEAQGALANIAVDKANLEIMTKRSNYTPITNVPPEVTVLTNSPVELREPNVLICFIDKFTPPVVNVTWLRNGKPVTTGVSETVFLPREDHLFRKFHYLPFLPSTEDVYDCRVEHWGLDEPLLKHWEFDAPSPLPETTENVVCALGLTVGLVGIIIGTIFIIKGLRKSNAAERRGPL

[3] = molecular target: T1, DRB1*0401 (DR4w4) (Homo sapiens, UniProt P01903+P01911, A100K/A169T/F76Y/I96L/K127E/L162R/M171V/N62H/P40V/Q125Y/R42H/S133A/S149N/S66Y/V115G/V209L/W38E); test: biochemical
T1 sequence (P01903 26-254 partner, other chains not shown): as the sequence (P01903 26-254, other chains not shown) above

[4] = molecular target: DRB1*0404 (DR4w14) (Homo sapiens, UniProt P01903+P01911, A100R/A169T/F76Y/I96L/K127E/L162R/M171V/N62H/P40V/Q125Y/R42H/S133A/S149N/S66Y/V209L/W38E); test: biochemical
[5] = molecular target: DRB1*0405 (DR4w15) (Homo sapiens, UniProt P01903+P01911, A100R/A169T/D86S/F76Y/I96L/K127E/L162R/M171V/N62H/P40V/Q125Y/R42H/S133A/S149N/S66Y/V115G/V209L/W38E); test: biochemical
Sequence of DRB1*0405 (DR4w15) (P01903 26-254 partner, other chains not shown): as the sequence (P01903 26-254, other chains not shown) above

[6] = molecular target: DRB1*0701 (DR7) (Homo sapiens, UniProt P01903+P01911, A100R/A102G/A103Q/D57E/D86V/E43K/F76Y/K127E/L162R/M171V/P40G/Q125H/Q99D/R33Q/R42Y/R54Q/S133A/S66F/T210M/V115G/Y107V/Y59L/Y89S); test: biochemical
[7] = molecular target: DRB1*0802 (DR8w2) (Homo sapiens, UniProt P01903+P01911, A100R/A103L/A169T/F76Y/H45Y/I96F/K41T/L162R/M171V/P40S/Q125H/Q178H/Q39Y/Q99D/R218S/R42G/S66Y/V115G/W38E); test: biochemical
[8] = molecular target: DRB1*1101 (DR5) (Homo sapiens, UniProt P01903+P01911, A100R/A169T/A87E/I96F/K41T/L162R/M171V/P40S/Q125H/Q178H/Q39Y/Q99D/R42S/S66Y/T262R/V115G/W38E); test: biochemical
Sequence of DRB1*1101 (DR5) (P01903 26-254 partner, other chains not shown): as the sequence (P01903 26-254, other chains not shown) above

[9] = molecular target: DRB1*1302 (DR6w19) (Homo sapiens, UniProt P01903+P01911, A100E/A169T/K41T/L162R/M171V/P40S/Q125H/Q178H/Q39Y/Q99D/R42S/S66N/T262R/V115G/W38E/Y61H); test: biochemical
Sequence of DRB1*1302 (DR6w19) (P01903 26-254, other chains not shown): as above

[10] = molecular target: DRB1*1501 (DR2w2beta-1) (Homo sapiens, UniProt P01903+P01911); test: biochemical
[11] = molecular target: T2, DRB4*0101 (DRw53) (Homo sapiens, UniProt P01903+P13762, G164S); test: biochemical
[12] = molecular target: DRB5*0101 (DR2w2beta-2) (Homo sapiens, UniProt P01903+Q30154); test: biochemical
[13] = molecular target: DRB1*0901 (Homo sapiens, UniProt P01903+P01911, A100R/A103E/D57H/D86V/F55Y/F60I/F76Y/I96F/K127E/L162R/M171V/P40D/Q125H/Q99R/R33Q/R42F/S133A/S66N/T210M/V115G/W38K/Y107V/Y59G/Y89S); test: biochemical
[14] = molecular target: T1, DRB1*0401 (DR4w4); settings: read-out: IC50 nM to purified HLA DRB1 *0401; HTL epitopes
[15] = molecular target: T2, DRB4*0101 (DRw53); settings: read-out: IC50 nM to purified HLA DRB4 *0101; HTL epitopes

| Molecule | IC50 [1] | IC50 [2] | IC50 [3] | IC50 [4] | IC50 [5] | IC50 [6] | IC50 [7] | IC50 [8] | IC50 [9] | IC50 [10] | IC50 [11] | IC50 [12] | IC50 [13] | IC50 [14] | IC50 [15] |
| --- | --- | --- | --- | --- | --- | --- | --- | --- | --- | --- | --- | --- | --- | --- | --- |
| WKHMRLECAIYYKAR [compound 91] | 701 nM | 437 nM | 245 nM | 6.86 µM | 557 nM | 504 nM | 90 nM | 2400 nM | 248 nM | 1390 nM | 766 nM | 280 nM | 6.34 µM | – | – |
| LQAIELQLTLETIYN (Human papillomavirus type 16) [SEQ ID 92] | – | – | – | – | – | – | – | – | – | – | – | – | – | 37 nM | 2 nM |
| CC[C@H](C)[C@H](NC(=O)CNC(=O)[C@H](CCC(=O)O)NC(=O)[C@H](Cc1c[nH]cn1)NC(=O)[C@@H](NC(=O)[C@H](Cc1ccc(O)cc1)NC(=O)[C@H](Cc1ccc(O)cc1)NC(=O)[C@H](CC(C)C)NC(=O)CN)C(C)C)C(=O)N[C@@H](CCCNC(=N)N)C(=O)N[C@H](C(=O)N[C@@H](Cc1ccc(O)cc1)C(=O)N[C@@H](Cc1ccccc1)C(=O)N[C@H](C(=O)N[C@@H](CCC(N)=O)C(=O)O)C(C)C)[C@@H](C)O [compound 93] | – | – | – | > 20 µM | – | – | – | – | > 20000 nM | – | > 20000 nM | 1000 nM | – | – | – |
